Measurements as given in patent publication US10377778B2, “Lead and thorium compounds” (Sciencons AS, priority 2017, dated 2019).

Legend:
PSMA-positive xenografts = assay: Biodistribution of single targeting solution (purified ^212Pb-ligand) in mice with PSMA-positive xenografts; type: in vivo
Method: Using a ^212Pb/^224Ra solution for reaction with p-SCN-Bn-TCMC-PSMA ligand 1 as described, purified ^212Pb-p-SCN-Bn-TCMC-PSMA ligand 1 was purified using a Sephadex G-10 gel filtration column and about 30 kBq and 300 ng of the purified radioligand product was injected per animal. […] The tumor-to-tissue ratios (Table 4) indicates suitability for radioligand targeting with ^212Pb.

[1] = tested on: C4-2 PSMA-positive xenografts; assay: Biodistribution of radiolabelled ligands (^224Ra/^212Pb solutions, ^177Lu) in nude mice with C4-2 xenografts
Method: Each group usually consisted of three mice. […] Approximately 16 kBq of ^224Ra/^212Pb was injected in each animal, i.e., approximately 0.2 nmol of ligand per mouse. Animals were given anaesthesia and sacrificed by cervical dislocation followed by dissection and harvesting of tissue-, blood- and urine samples. The samples were weighed and counted on a gamma counter.
Three mice in each group. […] The molar concentration was the same for both products, i.e., 12.5 nmol per MBq. Approximately 16 kBq of ^224Ra/^212Pb was injected in each animal, i.e., approximately 0.2 nmol of ligand per mouse. Animals were given anaesthesia and sacrificed by cervical dislocation followed by dissection and harvesting of tissue-, blood- and urine samples. The samples were weighed and counted on a gamma counter.
Methods: Tumor and kidney uptake of ^212Pb-labeled p-SCN-Bn-TCMC-PSMA ligand 1 and ^177Lu-labeled PSMA-617 was compared at 1 hours and 4 hours after administration of the products by intravenous injection into nude mice with C4-2 xenografts as described in Example 9.

C4-2 cells = assay: Radiolytic stability: cell binding fraction after storage in ^224Ra solution; design: species or system human
Method: Initial activity in the solution was about 5 MBq/ml causing an absorbed radiation dose to the solution of about 1.8 Gy after 24 h and 3.3 Gy after 48 hours. The data (Table 2) indicate a slight decline at the longest exposure time but in general a relatively strong radiolytic resistance of the ligand was observed, which is compatible with centralized production and shipment to the end user ^224Ra-based generator solution with or without removal of ^224Ra prior to the administration of product.

[2] = 4 h after i.v. injection, ^224Ra/^212Pb solution

## NC(=O)CN1CCN(CC(N)=O)CCN(CC(N)=O)C(Cc2ccc(NC(=S)NCC3CCC(C(=O)NC(Cc4ccc5ccccc5c4)C(=O)NCCCCC(NC(=O)NC(CCC(=O)O)C(=O)O)C(=O)O)CC3)cc2)CN(CC(N)=O)CC1.[212Pb+2] (stereo not drawn) [^212Pb-p-SCN-Bn-TCMC-PSMA ligand 1]
PSMA-positive xenografts; 1 h
  Tumor/Femur ratio: 30.4
  Tumor/blood ratio: 14.9
  Tumor/kidneys ratio: 0.41
  Tumor/muscle ratio: 42.6
PSMA-positive xenografts; 2 h
  Tumor/Femur ratio: 39.7
  Tumor/blood ratio: 29.4
  Tumor/kidneys ratio: 0.62
  Tumor/muscle ratio: 72.1
PSMA-positive xenografts; 4 h
  Tumor/Femur ratio: 24.8
  Tumor/blood ratio: 30.7
  Tumor/kidneys ratio: 1.54
  Tumor/muscle ratio: 61.5
PSMA-positive xenografts; 8 h
  Tumor/Femur ratio: 19.8
  Tumor/blood ratio: 112.7
  Tumor/kidneys ratio: 3.60
  Tumor/muscle ratio: 366.2
PSMA-positive xenografts; 1 h post injection
  Biodistribution, Bladder: 36.86 % ID/g
  Biodistribution, Blood: 1.77 % ID/g
  Biodistribution, Brain: 0.61 % ID/g
  Biodistribution, Femur: 0.87 % ID/g
  Biodistribution, Heart: 0.78 % ID/g
  Biodistribution, Kidneys: 63.96 % ID/g
  Biodistribution, Large intestine: 0.25 % ID/g
  Biodistribution, Liver: 2.39 % ID/g
  Biodistribution, Lungs: 1.19 % ID/g
  Biodistribution, Muscle: 0.62 % ID/g
  Biodistribution, Prostate: 13.95 % ID/g
  Biodistribution, Salivary gland: 0.72 % ID/g
  Biodistribution, Skin: 1.70 % ID/g
  Biodistribution, Skull: 0.77 % ID/g
  Biodistribution, Small intestine: 0.34 % ID/g
  Biodistribution, Spleen: 1.24 % ID/g
  Biodistribution, Stomach: 0.16 % ID/g
  Biodistribution, Testes: 4.41 % ID/g
  Biodistribution, Tumor: 26.44 % ID/g
  Biodistribution, Urine: 253.36 % ID/g
PSMA-positive xenografts; 2 h post injection
  Biodistribution, Bladder: 6.85 % ID/g
  Biodistribution, Blood: 0.54 % ID/g
  Biodistribution, Brain: 0.04 % ID/g
  Biodistribution, Femur: 0.40 % ID/g
  Biodistribution, Heart: 0.20 % ID/g
  Biodistribution, Kidneys: 25.41 % ID/g
  Biodistribution, Large intestine: 0.39 % ID/g
  Biodistribution, Liver: 1.33 % ID/g
  Biodistribution, Lungs: 0.40 % ID/g
  Biodistribution, Muscle: 0.22 % ID/g
  Biodistribution, Prostate: 3.80 % ID/g
  Biodistribution, Salivary gland: 0.32 % ID/g
  Biodistribution, Skin: 0.47 % ID/g
  Biodistribution, Skull: 0.38 % ID/g
  Biodistribution, Small intestine: 0.23 % ID/g
  Biodistribution, Spleen: 0.44 % ID/g
  Biodistribution, Stomach: 0.22 % ID/g
  Biodistribution, Testes: 0.56 % ID/g
  Biodistribution, Tumor: 15.87 % ID/g
  Biodistribution, Urine: 250.85 % ID/g
PSMA-positive xenografts; 4 h post injection
  Biodistribution, Bladder: 3.53 % ID/g
  Biodistribution, Blood: 0.46 % ID/g
  Biodistribution, Brain: 0.07 % ID/g
  Biodistribution, Femur: 0.57 % ID/g
  Biodistribution, Heart: 0.52 % ID/g
  Biodistribution, Kidneys: 9.19 % ID/g
  Biodistribution, Large intestine: 0.18 % ID/g
  Biodistribution, Liver: 1.55 % ID/g
  Biodistribution, Lungs: 0.75 % ID/g
  Biodistribution, Muscle: 0.23 % ID/g
  Biodistribution, Prostate: 1.48 % ID/g
  Biodistribution, Salivary gland: 0.34 % ID/g
  Biodistribution, Skin: 0.42 % ID/g
  Biodistribution, Skull: 0.37 % ID/g
  Biodistribution, Small intestine: 0.30 % ID/g
  Biodistribution, Spleen: 0.54 % ID/g
  Biodistribution, Stomach: 0.10 % ID/g
  Biodistribution, Testes: 0.38 % ID/g
  Biodistribution, Tumor: 14.14 % ID/g
  Biodistribution, Urine: 32.12 % ID/g
PSMA-positive xenografts; 8 h post injection
  Biodistribution, Bladder: 0.26 % ID/g
  Biodistribution, Blood: 0.13 % ID/g
  Biodistribution, Brain: 0.02 % ID/g
  Biodistribution, Femur: 0.74 % ID/g
  Biodistribution, Heart: 0.09 % ID/g
  Biodistribution, Kidneys: 4.07 % ID/g
  Biodistribution, Large intestine: 0.17 % ID/g
  Biodistribution, Liver: 1.25 % ID/g
  Biodistribution, Lungs: 0.17 % ID/g
  Biodistribution, Muscle: 0.04 % ID/g
  Biodistribution, Prostate: −0.10 % ID/g
  Biodistribution, Salivary gland: 0.15 % ID/g
  Biodistribution, Skin: 0.23 % ID/g
  Biodistribution, Skull: 0.63 % ID/g
  Biodistribution, Small intestine: 0.08 % ID/g
  Biodistribution, Spleen: 0.36 % ID/g
  Biodistribution, Stomach: 0.09 % ID/g
  Biodistribution, Testes: 0.12 % ID/g
  Biodistribution, Tumor: 14.65 % ID/g
  Biodistribution, Urine: 6.76 % ID/g
[1]; 1-hour point after administration
  Average tumor-to-kidney ratio: 0.40
[1]; 4-hour timepoint
  Tumor-to-kidney ratio: 1.7
[1]; [2]
  Uptake ratio to ^212Pb-PSMA-617, blood: 1.21
  Uptake ratio to ^212Pb-PSMA-617, kidneys: 0.20
  Uptake ratio to ^212Pb-PSMA-617, liver: 2.67
  Uptake ratio to ^212Pb-PSMA-617, spleen: 0.71
[1]; 4 h after i.v. injection, ^224Ra/^212Pb solution, about 0.2 nmol ligand per mouse
  Uptake ratio to ^212Pb-PSMA-617, tumor: 1.35
[1]; 4 hours after i.v. injection
  Kidney uptake (average): 8.1 % ID/g
  Tumor uptake (average): 13.9 % ID/g
C4-2 cells; kept in ^224Ra solution 4 h
  Cell binding fraction: 52.3%
C4-2 cells; kept in ^224Ra solution 24 h (about 1.8 Gy)
  Cell binding fraction: 48.16%
C4-2 cells; kept in ^224Ra solution 48 h (about 3.3 Gy)
  Cell binding fraction: 37.18%
